{
  "source": "patent US10052304B2",
  "about": "“Compositions and methods for cancer therapy” (UNIVERSITY OF IOWA RESEARCH FOUNDATION, priority 2015, dated 2018)",
  "key": {"H1299 cells": {"tested_on": "H1299 cells", "test": "Clonogenic survival assay, H1299 NSCLC cells", "assay_type": "cell-based, human", "experimental": "Treatment conditions for individual experiments are as described in the figure legends and summarized in the Supplemental Experimental Procedures.\n1-2×10^5 cells were plated in 60 mm cell culture dishes and grown in their respective media for 48 h before exposed to experimental conditions. […] For AdGPx1 experiments, cells were supplemented with 50 nM sodium selenite following transduction and throughout clonogenic growth. […] After treatment, cells were washed with PBS and clonogenic assay was completed in their respective media. Briefly, floating and attached cells were collected and total cells per plate were counted. An experimentally derived number of cells were plated into each well of a 6-well cell culture plate in their respective media. For HEL92.1.7 suspension cells, cells were seeded in a top layer of 0.4% (w/v) agarose to allow for quantifiable colony formation. […] Normalized survival fractions were calculated by comparing plating efficiencies of each treatment group against the control group within a given experiment."}, "ARP1 myeloma cells": {"tested_on": "ARP1 myeloma cells", "test": "ARP1 myeloma tumor-bearing model, IP injection, NOD-SCID mice", "assay_type": "in vivo", "conditions": "ascorbate 4 g/kg approximately 15 days, n=3", "experimental": "This experiment was repeated in a tumor-bearing mouse model through IP injection of ARP1 myeloma cells, which allows a solid tumor growth when implanted in mice purpose. A total of […] ARP1 MM cells (in 50 μl PBS) per mouse were injected into NOD-SCID mice through IP."}, "GBM subjects": {"tested_on": "GBM subjects", "test": "Phase I clinical trial of pharmacological ascorbate with radiation and temozolomide in GBM", "experimental": "The study was broken into two phases: radiation phase and adjuvant phase. Radiation phase was defined as the time period from day 1 of radiation through adjuvant cycle 1, day 1.\nAdjuvant phase was defined as the time period from cycle 1 day 1 through cycle 6 day 28. […] Prescribed doses utilized the same cohorts as the radiation phase. Subjects were dose-escalated after 2 infusions until a plasma level of 20 mM was achieved. […] Temozolomide was prescribed consistent with the Stupp regimen: 150 mg m^−2 for days 1 through 5 of a 28 day cycle. A one-time dose escalation was allowed to 200 mg/m^2 if cycle 1 was tolerated (FIG. 18A).\nAll subjects agreed to, and participate in, lifelong follow-up for this study. Subject numbers are for convenience and not representative of case ID numbers.\nThe study was broken into two phases: radiation phase and adjuvant phase. Radiation phase was defined as the time period from day 1 of radiation through adjuvant cycle 1, day 1. […] Cohorts were defined as 15 g, 25 g, 50 g, 62.5 g, 75 g, 87.5 g, 100 g, and 125 g. […] Adjuvant phase was defined as the time period from cycle 1 day 1 through cycle 6 day 28. […] Prescribed doses utilized the same cohorts as the radiation phase. Subjects were dose-escalated after 2 infusions until a plasma level of 20 mM was achieved. […] Temozolomide was prescribed consistent with the Stupp regimen: 150 mg m-2 for days 1 through 5 of a 28 day cycle. A one-time dose escalation was allowed to 200 mg/m2 if cycle 1 was tolerated (FIG. 18A). […] Dose limiting toxicities (DLTs) for the study included grade 4 infection, grade 3 nausea or vomiting despite maximum supportive care, grade 4 neutropenia or thrombocytopenia, and serious adverse events (SAE) with causality to the investigational agent. In addition to DLT, criteria for removal included progressive disease, patient's refusal to continue treatment, and extraordinary medical circumstances (e.g., the constraints of the protocol are considered detrimental to patient health). All subjects agreed to, and participate in, lifelong follow-up for this study. Subject numbers are for convenience and not representative of case ID numbers."}, "ETC complex IV": {"tested_on": "ETC complex IV", "test": "ETC complex IV activity after ascorbate exposure", "assay_type": "cell-based, human", "conditions": "NSCLC cell lysates", "experimental": "Exponentially growing cells were scraped and frozen as dry pellets until assayed for total activity. Aconitase activity was measured as the rate of appearance of NADPH (at 340 nm; Beckman DU 800 spectrophotometer, Brea, Calif.) for 45 min during the reaction of 200 μg total sample protein with 200 μM NADP^+ and 10 U isocitrate dehydrogenase as previously described (Case et al., 2011). Maximal ETC complex activity was measured as previously described (Birch-Machin et al., 1994). Complex I activity was quantified as the rate of rotenone-inhibitable NADH oxidation (320 nm; c=6.22 mM^−1 cm^−1). Complex II activity as the difference in the rate of DCIP reduction in the presence and absence of succinate (at 600 nm; ε=19.1 mM^−1 cm^−1). Complex IV activity was assayed as the rate of oxidation of cytochrome c ([…]; ε=19.6 mM^−1 cm^−1). Rates of activities were normalized to total protein by Lowry.\nExponentially growing cells were scraped and frozen as dry pellets until assayed for protein content (Lowry) and maximal ETC complex activity as previously described (Birch-Machin et al., 1994). Briefly, dry cell pellets were resuspended in 20 mM potassium phosphate buffer and sonicated 3×10 s each. Rates of activities were normalized to total protein. Complex I activity was quantified as the rate of rotenone-inhibitable NADH oxidation (320 nm; ε=6.22 mM-1 cm-1). […]"}, "[1]": {"conditions": "ascorbate + radiation + temozolomide"}, "[2]": {"conditions": "ascorbate + radiation + temozolomide, 11 subjects"}},
  "note": "Several values for one entry are separate records, joined by “and”; a condition that tells them apart may be missing. Identical values can stand only once. Entries after “also recorded” stand apart in the source; their conditions may differ.",
  "data": [
    {"smiles": "O=C1O[C@H]([C@@H](O)CO)C(O)=C1O", "note": "[ascorbate, L-ascorbic acid]", "values": [
      {"measurement": "sensitization to carboplatin + IR (clonogenic survival)", "setting": "H1299 cells; 1 h ascorbate + 5 μM carboplatin + 2 Gy IR vs Carbo+IR alone", "result": "significantly increased sensitivity to Carbo+IR; also recorded: selectively sensitized"},
      {"measurement": "clonogenic survival / cell killing", "setting": "H1299 cells; ascorbate alone, 1 h exposure", "result": "more clonogenic cell killing in NSCLC cell lines than chemotherapy plus radiation; also recorded: dose-dependent clonogenic cell killing"},
      {"measurement": "final tumor volume", "setting": "ARP1 myeloma cells", "result": "50±30", "unit": "mm3"},
      {"measurement": "desired therapeutic blood level (≥20 mM target plasma concentration) reached", "setting": "GBM subjects; 87.5 g infusions", "result": "achieved in all subjects"},
      {"measurement": "safety and tolerability", "setting": "GBM subjects; all 13 subjects, 15-125 g/infusion IV", "result": "safe and well tolerated"},
      {"measurement": "patients that completed the radiation phase still living", "setting": "GBM subjects; as of 7/28/15", "result": "10 of 11"},
      {"measurement": "OS range", "setting": "GBM subjects; [1]", "result": "7.3-29.3 m and 7.3-31.1 m"},
      {"measurement": "PFS range", "setting": "GBM subjects; [1]", "result": "3.4-29.3 m and 3.4-31.1 m"},
      {"measurement": "estimated median overall survival (Kaplan-Meier)", "setting": "GBM subjects; [1]", "result": 28.4, "unit": "months"},
      {"measurement": "mean progression free survival as of 7/28/15", "setting": "GBM subjects; [1]", "result": 14, "unit": "months"},
      {"measurement": "median OS", "setting": "GBM subjects; [1]", "result": 15.5, "unit": "m"},
      {"measurement": "median PFS", "setting": "GBM subjects; [1]", "result": 9.4, "unit": "m"},
      {"measurement": "average overall survival (OS)", "setting": "GBM subjects; [2]", "result": 18.2, "unit": "months"},
      {"measurement": "average progression free survival (PFS)", "setting": "GBM subjects; [2]", "result": 11.9, "unit": "months"},
      {"measurement": "current median overall survival (OS)", "setting": "GBM subjects; [2]", "result": 16.5, "unit": "months"},
      {"measurement": "median progression free survival (PFS)", "setting": "GBM subjects; [2]", "result": 9.4, "unit": "months"},
      {"measurement": "adverse events attributed to pharmacological ascorbate", "setting": "GBM subjects; in combination with radiation and temozolomide", "result": "no adverse events attributed to pharmacological ascorbate"},
      {"measurement": "subjects remaining alive", "setting": "GBM subjects; of 11 subjects in longevity analysis", "result": 7},
      {"measurement": "ETC complex IV activity", "setting": "ETC complex IV", "result": "no inhibition of activity"}
    ]}
  ]
}
